One may read the Kd as the equilibrium constant for the complex coming apart. High values mean a looser complex, low ones a tighter complex.

The target in test [1] is T1, TBX2 (Homo sapiens, UniProt Q13207).
T1 sequence (Q13207 94-287): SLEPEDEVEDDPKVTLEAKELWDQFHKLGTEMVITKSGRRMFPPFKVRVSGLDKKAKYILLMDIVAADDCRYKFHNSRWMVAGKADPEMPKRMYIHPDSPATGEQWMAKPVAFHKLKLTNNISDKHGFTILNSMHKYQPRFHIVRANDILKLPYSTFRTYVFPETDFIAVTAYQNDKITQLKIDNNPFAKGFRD
In words: microscale thermophoresis; also recovered by reverse affinity chromatography with UPLC-MS. In kind it is binding. For orientation: MST reads how a fluorescent partner responds to local heating, with and without ligand.

Test [2] concerns the target T1, TBX2. In words: microscale thermophoresis. In kind it is binding.

On to `CO[C@@H]1[C@H](O)C[C@@H](O[C@@H]2C[C@H](Oc3cc4cc5c(c(O)c4c(O)c3C)C(=O)C(O[C@H]3C[C@@H](O[C@H]4C[C@@H](O[C@H]6C[C@](C)(O)[C@@H](OC(=O)C(C)C)[C@H](C)O6)[C@H](O)[C@@H](C)O4)[C@H](O)[C@@H](C)O3)C([C@H](OC)C(=O)[C@@H](O)[C@@H](C)O)C5)O[C@H](C)[C@@H]2OC(C)=O)O[C@@H]1C` (some centres unmarked) [CA5, chromomycin A5], for which the Kd in test [1] was determined as 31.3 ± 23.3 µM. In turn, `CO[C@@H]1[C@H](O)C[C@@H](O[C@@H]2C[C@H](Oc3cc4cc5c(c(O)c4c(O)c3C)C(=O)C(O[C@H]3C[C@@H](O[C@H]4C[C@@H](O[C@H]6C[C@](C)(O)[C@@H](OC(C)=O)[C@H](C)O6)[C@H](O)[C@@H](C)O4)[C@H](O)[C@@H](C)O3)C([C@H](OC)C(=O)[C@@H](O)[C@@H](C)O)C5)O[C@H](C)[C@@H]2OC(C)=O)O[C@@H]1C` (some centres unmarked) [CA6, chromomycin A6] gave a Kd in test [2] of 24.4 ± 13.6 µM.

Values taken from PMC7062867, “Targeting the Oncogenic TBX2 Transcription Factor With Chromomycins” (Frontiers in Chemistry, 2020).
